In publication PMC7422722, “The complete functional characterisation of the terpene synthase family in tomato” (The New Phytologist, 2020):

How the values were obtained:
Format in all cases: biochemical
[1] = biological target: T1, GGPPS2 (Solanum lycopersicum, UniProt Q1A7S9); test: in vitro prenyltransferase assay, products hydrolysed, GC-MS; settings: co-substrate IPP; without SSU
T1 construct: gene GGPS2

[2] = biological target: T2, GGPPS1 (Solanum lycopersicum, UniProt Q1A7T0); test: as above; settings: co-substrate IPP; without SSU
T2 construct: gene GGPS1

[3] = biological target: T3, TPS47 (Solanum lycopersicum, UniProt K4BEJ5); test: in vitro assay, headspace SPME GC-MS; settings: product isoprene; 42 °C headspace collection
T3 construct: gene LOC101258440; recombinant, E. coli (codon-optimised gene made), His-tagged, purified; full length 562 residues; gene on chromosome 3
T3 sequence (K4BEJ5 1-562): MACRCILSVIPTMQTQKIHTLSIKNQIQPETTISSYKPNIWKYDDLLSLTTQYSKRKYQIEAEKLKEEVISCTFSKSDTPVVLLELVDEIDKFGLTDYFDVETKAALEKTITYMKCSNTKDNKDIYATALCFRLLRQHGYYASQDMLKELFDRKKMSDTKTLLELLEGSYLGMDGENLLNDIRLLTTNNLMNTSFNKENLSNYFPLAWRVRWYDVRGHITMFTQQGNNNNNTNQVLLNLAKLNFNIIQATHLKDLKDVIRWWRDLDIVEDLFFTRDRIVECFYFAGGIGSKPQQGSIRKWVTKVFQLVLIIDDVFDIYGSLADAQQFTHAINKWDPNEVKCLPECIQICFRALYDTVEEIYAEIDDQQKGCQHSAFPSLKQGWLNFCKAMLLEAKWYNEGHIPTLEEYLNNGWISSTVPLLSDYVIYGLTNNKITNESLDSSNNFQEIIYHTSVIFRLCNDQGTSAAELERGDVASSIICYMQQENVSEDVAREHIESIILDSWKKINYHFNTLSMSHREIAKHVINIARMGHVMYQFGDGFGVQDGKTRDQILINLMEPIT

[4] = biological target: T4, TPS52 (Solanum lycopersicum, UniProt A0A6H0JLZ2); test: in vitro assay, GC-MS of products
T4 construct: recombinant, E. coli (codon-optimised gene made), His-tagged, purified; full length 551 residues; gene on chromosome 7
T4 sequence (A0A6H0JLZ2 1-551): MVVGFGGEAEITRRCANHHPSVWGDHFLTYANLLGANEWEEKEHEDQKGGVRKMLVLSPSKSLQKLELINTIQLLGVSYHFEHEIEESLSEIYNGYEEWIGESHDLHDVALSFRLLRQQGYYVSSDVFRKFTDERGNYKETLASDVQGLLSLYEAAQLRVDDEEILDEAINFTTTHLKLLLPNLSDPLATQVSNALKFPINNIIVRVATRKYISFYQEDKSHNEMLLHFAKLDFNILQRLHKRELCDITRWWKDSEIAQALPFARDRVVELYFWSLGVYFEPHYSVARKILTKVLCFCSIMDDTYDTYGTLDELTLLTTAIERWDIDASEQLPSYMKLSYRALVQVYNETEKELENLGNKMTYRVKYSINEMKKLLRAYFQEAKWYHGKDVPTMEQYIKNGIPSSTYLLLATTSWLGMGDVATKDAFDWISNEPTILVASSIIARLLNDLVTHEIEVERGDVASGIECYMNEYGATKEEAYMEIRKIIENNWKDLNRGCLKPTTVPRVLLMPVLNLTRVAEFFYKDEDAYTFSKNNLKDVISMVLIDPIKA

[5] = biological target: T5, TPS27 (Solanum lycopersicum, UniProt G5CV48); test: in vitro assay, GC-MS of products; settings: product alpha-farnesene
T5 construct: recombinant, E. coli pET32b or pET28a, His-tagged, purified
T5 sequence (G5CV48 1-554): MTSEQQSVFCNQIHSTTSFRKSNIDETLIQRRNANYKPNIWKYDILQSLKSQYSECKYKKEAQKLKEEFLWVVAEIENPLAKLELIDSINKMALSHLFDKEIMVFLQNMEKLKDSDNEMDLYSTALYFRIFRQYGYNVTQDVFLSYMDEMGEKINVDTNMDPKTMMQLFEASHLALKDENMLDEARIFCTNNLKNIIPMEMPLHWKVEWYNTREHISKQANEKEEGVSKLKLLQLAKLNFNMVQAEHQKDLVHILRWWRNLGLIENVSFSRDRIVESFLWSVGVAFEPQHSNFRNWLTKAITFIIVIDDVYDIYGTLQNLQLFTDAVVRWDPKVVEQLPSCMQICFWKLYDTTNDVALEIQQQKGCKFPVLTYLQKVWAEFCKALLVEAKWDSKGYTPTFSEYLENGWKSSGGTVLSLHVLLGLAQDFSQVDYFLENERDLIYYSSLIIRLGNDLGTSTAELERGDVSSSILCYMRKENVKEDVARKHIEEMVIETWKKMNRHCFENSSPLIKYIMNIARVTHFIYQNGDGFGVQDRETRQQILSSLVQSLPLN

[6] = biological target: T6, TPS51 (Solanum lycopersicum, UniProt A0A6H0JLJ2); test: in vitro assay, GC-MS of products
T6 construct: recombinant, E. coli (codon-optimised gene made), His-tagged, purified; full length 550 residues; gene on chromosome 7
T6 sequence (A0A6H0JLJ2 1-550): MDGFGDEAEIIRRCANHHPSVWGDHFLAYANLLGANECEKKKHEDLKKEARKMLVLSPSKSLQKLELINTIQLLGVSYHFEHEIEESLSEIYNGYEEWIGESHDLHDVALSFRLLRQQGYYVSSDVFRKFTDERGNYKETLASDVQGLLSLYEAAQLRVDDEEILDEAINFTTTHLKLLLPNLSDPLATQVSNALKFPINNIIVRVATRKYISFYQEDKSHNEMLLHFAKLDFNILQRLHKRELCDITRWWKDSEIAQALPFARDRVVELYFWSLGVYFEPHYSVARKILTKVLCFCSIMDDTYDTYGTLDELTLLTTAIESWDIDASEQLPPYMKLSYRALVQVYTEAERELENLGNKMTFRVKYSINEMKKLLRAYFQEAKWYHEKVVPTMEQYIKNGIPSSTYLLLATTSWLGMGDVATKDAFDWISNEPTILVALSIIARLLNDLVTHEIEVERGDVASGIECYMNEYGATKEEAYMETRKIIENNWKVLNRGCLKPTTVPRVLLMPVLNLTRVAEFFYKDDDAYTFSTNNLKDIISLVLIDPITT

[7] = biological target: T7, TPS25 (Solanum lycopersicum, UniProt G5CV49); test: in vitro assay, GC-MS of products; settings: product mostly beta-ocimene
T7 construct: recombinant, E. coli pET32b or pET28a, His-tagged, purified
T7 sequence (G5CV49 1-576): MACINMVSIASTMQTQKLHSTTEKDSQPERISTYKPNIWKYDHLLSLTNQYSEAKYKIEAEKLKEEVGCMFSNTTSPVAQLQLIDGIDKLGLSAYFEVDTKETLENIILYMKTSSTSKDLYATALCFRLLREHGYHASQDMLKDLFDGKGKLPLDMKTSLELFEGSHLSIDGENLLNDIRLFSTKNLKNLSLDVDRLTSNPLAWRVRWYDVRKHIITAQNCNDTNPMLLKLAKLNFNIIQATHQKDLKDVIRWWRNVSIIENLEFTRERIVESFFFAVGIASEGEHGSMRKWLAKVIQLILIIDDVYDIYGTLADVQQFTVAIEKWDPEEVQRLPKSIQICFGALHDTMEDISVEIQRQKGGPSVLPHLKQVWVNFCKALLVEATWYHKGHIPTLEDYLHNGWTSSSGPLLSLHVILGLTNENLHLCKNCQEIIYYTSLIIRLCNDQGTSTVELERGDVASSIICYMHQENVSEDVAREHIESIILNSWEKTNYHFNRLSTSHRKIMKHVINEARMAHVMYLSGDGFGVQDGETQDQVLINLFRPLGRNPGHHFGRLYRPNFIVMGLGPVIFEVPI

[8] = biological target: T8, TPS33 (Solanum lycopersicum, UniProt G5CV44); test: in vitro assay, GC-MS of products; settings: several sesquiterpene products
T8 construct: recombinant, E. coli pET32b or pET28a, His-tagged, purified
T8 sequence (G5CV44 1-552): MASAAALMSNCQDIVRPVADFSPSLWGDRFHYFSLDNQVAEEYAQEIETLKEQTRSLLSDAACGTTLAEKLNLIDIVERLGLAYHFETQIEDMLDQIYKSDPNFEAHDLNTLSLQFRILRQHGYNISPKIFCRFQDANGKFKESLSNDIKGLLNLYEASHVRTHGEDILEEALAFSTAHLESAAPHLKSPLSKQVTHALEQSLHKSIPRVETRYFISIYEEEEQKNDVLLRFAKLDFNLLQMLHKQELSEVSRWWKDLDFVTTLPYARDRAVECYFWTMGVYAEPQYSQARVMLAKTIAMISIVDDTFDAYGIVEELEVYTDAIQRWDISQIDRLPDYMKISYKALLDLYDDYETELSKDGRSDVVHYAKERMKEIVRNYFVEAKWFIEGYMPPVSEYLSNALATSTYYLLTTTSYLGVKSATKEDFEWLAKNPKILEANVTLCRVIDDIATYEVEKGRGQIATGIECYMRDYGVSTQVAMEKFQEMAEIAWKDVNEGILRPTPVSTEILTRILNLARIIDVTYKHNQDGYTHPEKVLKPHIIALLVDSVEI

[9] = biological target: T9, TPS28 (Solanum lycopersicum, UniProt G5CV47); test: in vitro assay, GC-MS of products; settings: product unidentified sesquiterpene
T9 construct: recombinant, E. coli pET32b or pET28a, His-tagged, purified
T9 sequence (G5CV47 1-554): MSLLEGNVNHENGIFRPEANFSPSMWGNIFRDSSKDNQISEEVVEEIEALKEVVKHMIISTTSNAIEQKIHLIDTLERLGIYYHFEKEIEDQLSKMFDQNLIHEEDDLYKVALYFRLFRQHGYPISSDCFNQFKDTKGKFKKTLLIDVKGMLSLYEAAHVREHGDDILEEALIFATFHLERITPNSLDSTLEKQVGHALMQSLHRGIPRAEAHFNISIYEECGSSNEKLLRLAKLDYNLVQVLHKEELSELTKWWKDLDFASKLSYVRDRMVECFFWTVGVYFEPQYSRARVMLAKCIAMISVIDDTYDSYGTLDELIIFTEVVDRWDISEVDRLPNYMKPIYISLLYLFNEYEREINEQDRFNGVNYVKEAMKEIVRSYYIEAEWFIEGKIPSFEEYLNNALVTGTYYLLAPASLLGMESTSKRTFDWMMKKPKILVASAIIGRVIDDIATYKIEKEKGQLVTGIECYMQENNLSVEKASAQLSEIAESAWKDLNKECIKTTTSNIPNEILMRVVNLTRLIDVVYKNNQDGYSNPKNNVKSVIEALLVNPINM

[10] = biological target: T10, TPS36 (Solanum lycopersicum, UniProt G5CV42); test: in vitro assay, GC-MS of products; settings: product mostly cis-muurola-3,5-diene
T10 construct: recombinant, E. coli pET32b or pET28a, His-tagged, purified, putative transit peptide removed (mitochondrial enzyme)

[11] = biological target: T11, TPS35 (Solanum lycopersicum, UniProt G5CV43); test: in vitro assay, GC-MS of products; settings: product predominantly Z,Z-farnesol
T11 construct: recombinant, E. coli pET32b or pET28a, His-tagged, purified
T11 sequence (G5CV43 1-556): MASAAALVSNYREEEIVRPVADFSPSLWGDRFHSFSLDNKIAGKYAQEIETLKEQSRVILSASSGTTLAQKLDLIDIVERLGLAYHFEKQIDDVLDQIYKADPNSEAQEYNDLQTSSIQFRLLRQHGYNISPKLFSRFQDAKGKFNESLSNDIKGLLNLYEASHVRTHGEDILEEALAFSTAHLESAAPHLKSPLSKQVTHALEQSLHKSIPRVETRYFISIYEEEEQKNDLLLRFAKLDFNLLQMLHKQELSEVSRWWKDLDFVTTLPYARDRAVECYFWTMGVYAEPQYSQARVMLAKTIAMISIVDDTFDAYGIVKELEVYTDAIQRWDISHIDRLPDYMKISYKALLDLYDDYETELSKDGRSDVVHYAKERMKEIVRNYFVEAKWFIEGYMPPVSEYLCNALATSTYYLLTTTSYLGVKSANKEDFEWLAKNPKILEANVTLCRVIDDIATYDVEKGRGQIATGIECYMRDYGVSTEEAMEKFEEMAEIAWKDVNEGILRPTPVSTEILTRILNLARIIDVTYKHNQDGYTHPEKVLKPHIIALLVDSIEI

T2 sequence (Q1A7T0 60-365): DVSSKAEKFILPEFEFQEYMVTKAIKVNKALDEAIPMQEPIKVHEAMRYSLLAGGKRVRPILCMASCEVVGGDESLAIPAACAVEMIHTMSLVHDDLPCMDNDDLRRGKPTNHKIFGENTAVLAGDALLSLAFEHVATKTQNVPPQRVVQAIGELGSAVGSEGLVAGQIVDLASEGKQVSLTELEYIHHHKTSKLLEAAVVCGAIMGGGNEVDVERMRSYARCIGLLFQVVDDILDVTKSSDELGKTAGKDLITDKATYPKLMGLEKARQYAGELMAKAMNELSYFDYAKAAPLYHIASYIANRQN
T10 sequence (G5CV42 entry or part of it): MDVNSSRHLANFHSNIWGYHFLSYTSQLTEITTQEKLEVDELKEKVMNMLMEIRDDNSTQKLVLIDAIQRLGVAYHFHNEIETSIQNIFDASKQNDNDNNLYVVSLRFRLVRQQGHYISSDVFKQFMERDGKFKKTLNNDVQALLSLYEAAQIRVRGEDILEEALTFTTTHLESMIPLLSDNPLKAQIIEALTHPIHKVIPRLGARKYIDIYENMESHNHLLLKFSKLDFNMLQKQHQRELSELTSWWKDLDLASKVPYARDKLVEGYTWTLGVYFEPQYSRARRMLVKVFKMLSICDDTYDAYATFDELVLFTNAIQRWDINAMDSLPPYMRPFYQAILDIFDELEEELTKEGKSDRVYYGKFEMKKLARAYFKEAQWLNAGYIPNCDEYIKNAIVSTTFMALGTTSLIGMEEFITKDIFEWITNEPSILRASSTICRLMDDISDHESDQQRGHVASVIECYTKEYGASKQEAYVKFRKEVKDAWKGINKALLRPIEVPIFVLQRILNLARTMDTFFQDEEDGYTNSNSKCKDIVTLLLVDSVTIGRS
T1 sequence (Q1A7S9 57-363): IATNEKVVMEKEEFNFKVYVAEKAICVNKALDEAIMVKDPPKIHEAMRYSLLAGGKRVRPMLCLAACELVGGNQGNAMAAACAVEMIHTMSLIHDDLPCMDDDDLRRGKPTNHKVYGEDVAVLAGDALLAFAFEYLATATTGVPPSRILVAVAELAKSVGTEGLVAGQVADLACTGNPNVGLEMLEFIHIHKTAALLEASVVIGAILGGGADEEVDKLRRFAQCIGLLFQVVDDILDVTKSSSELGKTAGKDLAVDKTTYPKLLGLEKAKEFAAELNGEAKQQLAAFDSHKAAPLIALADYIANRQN

## CC(C)=CCOP(=O)(O)OP(=O)(O)O [DMAPP]
[1]
  in vitro prenyltransferase assay, products hydrolysed, GC-MS: affinity-purified His-tagged recombinant proteins were incubated with IPP and DMAPP
[2]
  in vitro prenyltransferase assay, products hydrolysed, GC-MS: affinity-purified His-tagged recombinant proteins were incubated with IPP and DMAPP
[3]
  in vitro assay, headspace SPME GC-MS: When tested in vitro, TPS47 catalysed the formation of isoprene from DMAPP

## CC(C)=CCC/C(C)=C/CC/C(C)=C/COP(=O)(O)OP(=O)(O)O [E,E-FPP]
[4]; product mostly E-nerolidol
  in vitro assay, GC-MS of products: catalysed the formation of mostly E-nerolidol from E,E-FPP
[5]
  in vitro assay, GC-MS of products: TPS27 had activity only with E,E-FPP to form α-farnesene
[6]; product mostly E-nerolidol
  in vitro assay, GC-MS of products: catalysed the formation of mostly E-nerolidol from E,E-FPP

## CC(C)=CCC/C(C)=C/COP(=O)(O)OP(=O)(O)O [GPP]
[7]
  in vitro assay, GC-MS of products: TPS25 had activity only with GPP as the substrate, producing mostly β-ocimene

## CC(C)=CCC/C(C)=C\CC/C(C)=C\COP(=O)(O)OP(=O)(O)O [Z,Z-FPP]
[4]; several sesquiterpene products
  in vitro assay, GC-MS of products: α-bisabolene, β-bisabolene and Z-β-farnesene) from Z,Z-FPP
[8]
  in vitro assay, GC-MS of products: When assayed with Z,Z-FPP, TPS33 made several sesquiterpenes
[9]
  in vitro assay, GC-MS of products: TPS28 and TPS48 also catalysed the formation of a major sesquiterpene from Z,Z-FPP
[10]
  in vitro assay, GC-MS of products: TPS36 only had activity using Z,Z-FPP and produced mostly cis-muurola-3,5-diene
[11]
  in vitro assay, GC-MS of products: while TPS35 made predominantly Z,Z-farnesol
[6]; several sesquiterpene products
  in vitro assay, GC-MS of products: α-bisabolene, β-bisabolene and Z-β-farnesene) from Z,Z-FPP
